Experimental data taken from ChEMBL document CHEMBL4359860, “Tacrine-O-protected phenolics heterodimers as multitarget-directed ligands against Alzheimer's disease: Selective subnanomolar BuChE inhibitors” (Eur J Med Chem, 2019).
Calls of active or inactive are those of the source. No cut-off for these calls is given here.

How the values were obtained:
Acetylcholinesterase [1] = target: T1, Acetylcholinesterase (Electrophorus electricus, UniProt O42275)
Description: Inhibition of electric eel AChE assessed as dissociation constant for enzyme-substrate-inhibitor complex using acetylthiocholine iodide as substrate measured for 125 secs by Ellman's method

Cholinesterase [2] = target: T2, Cholinesterase (Equus caballus, UniProt P81908)
Description: Inhibition of equine serum BuChE assessed as dissociation constant for enzyme-inhibitor complex using butyrylthiocholine iodide as substrate measured for 125 secs by Ellman's method

Acetylcholinesterase [3] = target: T1, Acetylcholinesterase; remark: listed apart in the source
Description: Inhibition of electric eel AChE assessed as dissociation constant for enzyme-inhibitor complex using acetylthiocholine iodide as substrate measured for 125 secs by Ellman's method

Cholinesterase [4] = target: T2, Cholinesterase; remark: listed apart in the source
Description: Inhibition of equine serum BuChE assessed as dissociation constant for enzyme-substrate-inhibitor complex using butyrylthiocholine iodide as substrate measured for 125 secs by Ellman's method

Acetylcholinesterase [5] = target: Acetylcholinesterase (Homo sapiens, UniProt P22303); test: Inhibition of human recombinant AChE expressed in HEK293 cells using […] as substrate preincubated with enzyme for 20 mins followed by substrate addition and measured after 5 mins by Ellman's method
Cholinesterase [6] = target: T3, Cholinesterase (Homo sapiens, UniProt P06276); test: Inhibition of human serum BuChe by Ellman's method
[7] = target: Cholinesterase (Equus caballus) (UniProt P81908)
[8] = target: Cholinesterase (Equus caballus) (UniProt P81908); remark: listed apart in the source
[9] = system: Cerebellar granule neurone; test: Neuroprotective activity against 6-OHDA-induced cytotoxicity in rat primary cerebellar granule neuron at 1 to 25 uM by MTT assay; format: functional, cell-based
[10] = target: Amyloid-beta precursor protein (Homo sapiens) (UniProt P05067); details: at 50 µM
Description: Inhibition of amyloid beta (1 to 42) (unknown origin) self aggregation at 50 uM incubated for 48 hrs by thioflavin-T fluorescence method relative to control

[11] = system: Cerebellar granule neurone; test: Cytotoxicity in rat Primary cerebellar granule neuron assessed as cell viability up to 5 uM after 24 hrs by MTT assay; format: cell-based
Cholinesterase [12] = target: T3, Cholinesterase; test: Potency index, ratio of tacrine IC50 to compound IC50 for human serum BuChe by Ellman's method
[13] = Cytotoxicity against human HepG2 cells assessed as cell survival at 1 to 25 uM after 24 hrs by MTT assay relative to control; format: cell-based; details: read-out: Activity
[14] = Stability of compound in human plasma at 10 uM measured up to 360 mins by LC-MS analysis; format: ADME, cell-free; details: 6 h
Primary neuron = test: Neuroprotective activity against serum/K+ deprivation induced cytotoxicity in rat primary neuronal cells up to 10 uM by MTT assay; format: functional, cell-based
HBL-100 = test: Antiproliferative activity against human HBL100 cells assessed as growth inhibition after 48 hrs by SRB assay; format: functional; details: HBL-100, 48 h
A549 = test: Antiproliferative activity against human A549 cells assessed as growth inhibition after 48 hrs by SRB assay; format: functional; details: A549, 48 h
[15] = Cytotoxicity against human hTERT-BJ cells assessed as growth inhibition after 48 hrs by SRB assay; format: cell-based
SW1573 = test: Antiproliferative activity against human SW1573 cells assessed as growth inhibition after 48 hrs by SRB assay; format: functional; details: SW1573, 48 h
T47D [16] = test: Antiproliferative activity against human T47D cells assessed as growth inhibition after 48 hrs by SRB assay; format: functional
HeLa = test: Antiproliferative activity against human HeLa cells assessed as growth inhibition after 48 hrs by SRB assay; format: functional
WiDr [17] = test: Antiproliferative activity against human WiDr cells assessed as growth inhibition after 48 hrs by SRB assay; format: functional
T47D [18] = test: Potency index, ratio of 5-FU GI50 to compound GI50 for human T47D cells after 48 hrs by SRB assay; format: functional
WiDr [19] = test: Potency index, ratio of 5-FU GI50 to compound GI50 for human WiDr cells after 48 hrs by SRB assay; format: functional
[20] = Selectivity index, ratio of GI50 for human hTERT-BJ cells to GI50 for human T47D cells after 48 hrs by SRB assay; format: toxicity; details: hTERT-BJ cells and T47D cells, read-out: RatioGI50
[21] = Selectivity index, ratio of GI50 for human hTERT-BJ cells to GI50 for human WiDr cells after 48 hrs by SRB assay; format: toxicity; details: hTERT-BJ cells and WiDr cells, read-out: RatioGI50
[22] = Cytotoxicity in rat Primary cerebellar granule neuron assessed as cell viability at 1 uM after 24 hrs by MTT assay; format: cell-based, Cerebellar granule neurone; details: primary cerebellar granule neurons, read-out: Activity
HepG2 = test: Cytotoxicity against human HepG2 cells at 1 to 25 uM after 24 hrs by MTT assay; format: cell-based; details: hepg2, 24 h

Chain of Acetylcholinesterase (Homo sapiens, UniProt P22303) (P22303 whole entry): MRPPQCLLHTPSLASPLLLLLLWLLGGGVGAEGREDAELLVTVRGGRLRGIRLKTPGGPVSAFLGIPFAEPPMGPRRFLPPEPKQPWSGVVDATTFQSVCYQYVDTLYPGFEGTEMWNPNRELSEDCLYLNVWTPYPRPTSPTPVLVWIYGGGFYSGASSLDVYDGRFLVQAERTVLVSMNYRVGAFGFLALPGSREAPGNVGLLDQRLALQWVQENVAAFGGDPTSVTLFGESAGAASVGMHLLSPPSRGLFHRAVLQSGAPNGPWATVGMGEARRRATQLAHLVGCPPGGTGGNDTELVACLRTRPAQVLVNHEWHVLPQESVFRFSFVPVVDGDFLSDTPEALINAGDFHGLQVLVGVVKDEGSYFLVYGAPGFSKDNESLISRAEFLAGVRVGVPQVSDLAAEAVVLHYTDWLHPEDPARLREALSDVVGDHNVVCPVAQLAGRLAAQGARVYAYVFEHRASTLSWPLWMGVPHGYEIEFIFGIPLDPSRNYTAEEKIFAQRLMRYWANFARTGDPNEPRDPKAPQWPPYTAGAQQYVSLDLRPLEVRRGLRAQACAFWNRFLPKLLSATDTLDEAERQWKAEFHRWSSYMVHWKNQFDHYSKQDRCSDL
Chain of Cholinesterase (Equus caballus) (P81908 whole entry): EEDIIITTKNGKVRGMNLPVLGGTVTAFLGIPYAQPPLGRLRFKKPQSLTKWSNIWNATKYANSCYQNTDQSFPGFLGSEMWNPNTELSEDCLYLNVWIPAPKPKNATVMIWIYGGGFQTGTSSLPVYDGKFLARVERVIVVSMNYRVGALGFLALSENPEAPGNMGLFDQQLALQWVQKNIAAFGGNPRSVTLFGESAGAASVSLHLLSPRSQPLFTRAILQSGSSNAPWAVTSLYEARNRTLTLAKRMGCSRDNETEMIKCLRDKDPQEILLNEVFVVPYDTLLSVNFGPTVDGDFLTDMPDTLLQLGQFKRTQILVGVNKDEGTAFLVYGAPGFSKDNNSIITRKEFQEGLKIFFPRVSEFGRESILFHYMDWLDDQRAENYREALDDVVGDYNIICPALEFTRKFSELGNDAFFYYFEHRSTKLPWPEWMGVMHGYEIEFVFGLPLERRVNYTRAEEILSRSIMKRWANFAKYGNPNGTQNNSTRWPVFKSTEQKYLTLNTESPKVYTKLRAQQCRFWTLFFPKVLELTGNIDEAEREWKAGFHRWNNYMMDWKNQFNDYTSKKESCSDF
T2 sequence (P81908 whole entry): as above
T1 sequence (O42275 whole entry): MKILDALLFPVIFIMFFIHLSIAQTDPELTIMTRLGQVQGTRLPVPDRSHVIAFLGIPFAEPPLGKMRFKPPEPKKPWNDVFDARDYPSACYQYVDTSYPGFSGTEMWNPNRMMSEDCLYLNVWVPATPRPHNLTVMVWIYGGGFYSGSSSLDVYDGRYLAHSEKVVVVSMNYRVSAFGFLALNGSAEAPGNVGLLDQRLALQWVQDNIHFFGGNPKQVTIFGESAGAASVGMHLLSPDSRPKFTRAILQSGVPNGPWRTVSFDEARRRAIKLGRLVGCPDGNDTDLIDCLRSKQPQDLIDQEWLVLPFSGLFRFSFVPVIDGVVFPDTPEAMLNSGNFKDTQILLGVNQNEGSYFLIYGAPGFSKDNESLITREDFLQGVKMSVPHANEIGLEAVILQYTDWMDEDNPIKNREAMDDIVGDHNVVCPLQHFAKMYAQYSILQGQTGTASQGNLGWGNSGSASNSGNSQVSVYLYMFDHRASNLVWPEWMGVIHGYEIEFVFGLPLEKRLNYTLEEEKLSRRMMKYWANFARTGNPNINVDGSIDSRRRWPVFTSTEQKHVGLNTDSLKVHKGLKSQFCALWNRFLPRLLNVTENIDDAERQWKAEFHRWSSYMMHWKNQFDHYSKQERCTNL
T3 sequence (P06276 whole entry): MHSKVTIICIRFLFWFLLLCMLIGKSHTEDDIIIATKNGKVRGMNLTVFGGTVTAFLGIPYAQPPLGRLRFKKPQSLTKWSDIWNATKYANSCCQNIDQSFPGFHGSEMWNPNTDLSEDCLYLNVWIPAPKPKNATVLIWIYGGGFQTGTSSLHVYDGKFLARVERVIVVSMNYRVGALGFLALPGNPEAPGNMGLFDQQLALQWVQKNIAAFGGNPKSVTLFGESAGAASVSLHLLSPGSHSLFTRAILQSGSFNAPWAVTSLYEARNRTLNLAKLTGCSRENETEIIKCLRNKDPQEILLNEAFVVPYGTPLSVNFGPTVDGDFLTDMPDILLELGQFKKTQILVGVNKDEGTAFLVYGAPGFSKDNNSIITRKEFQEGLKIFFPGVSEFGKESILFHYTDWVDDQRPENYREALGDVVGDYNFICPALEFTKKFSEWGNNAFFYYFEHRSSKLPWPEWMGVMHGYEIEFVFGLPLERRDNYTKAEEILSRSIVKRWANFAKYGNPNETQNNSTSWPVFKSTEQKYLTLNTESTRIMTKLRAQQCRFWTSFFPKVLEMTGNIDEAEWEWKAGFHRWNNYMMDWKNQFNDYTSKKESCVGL
Chain of Amyloid-beta precursor protein (Homo sapiens) (P05067 whole entry): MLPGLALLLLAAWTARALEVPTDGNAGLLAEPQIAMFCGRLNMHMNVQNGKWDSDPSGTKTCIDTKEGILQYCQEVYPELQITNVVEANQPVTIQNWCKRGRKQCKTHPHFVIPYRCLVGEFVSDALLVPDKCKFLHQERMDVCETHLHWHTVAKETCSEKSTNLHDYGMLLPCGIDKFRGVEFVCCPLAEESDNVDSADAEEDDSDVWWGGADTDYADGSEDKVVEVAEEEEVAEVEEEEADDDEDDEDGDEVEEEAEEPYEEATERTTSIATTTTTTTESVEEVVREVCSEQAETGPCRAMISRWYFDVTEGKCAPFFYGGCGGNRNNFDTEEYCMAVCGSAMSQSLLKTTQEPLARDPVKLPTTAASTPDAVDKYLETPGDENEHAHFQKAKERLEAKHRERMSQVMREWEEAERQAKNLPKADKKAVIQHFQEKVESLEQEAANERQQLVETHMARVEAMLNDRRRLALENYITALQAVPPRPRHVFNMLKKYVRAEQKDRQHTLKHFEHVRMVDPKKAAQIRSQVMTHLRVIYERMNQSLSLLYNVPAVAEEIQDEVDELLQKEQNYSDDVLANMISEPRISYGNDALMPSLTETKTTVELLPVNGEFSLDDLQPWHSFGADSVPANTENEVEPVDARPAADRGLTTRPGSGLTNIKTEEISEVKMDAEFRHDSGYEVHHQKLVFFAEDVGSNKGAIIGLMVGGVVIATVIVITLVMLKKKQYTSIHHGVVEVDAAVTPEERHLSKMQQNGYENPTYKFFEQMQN

COc1ccc(CNc2c3c(nc4ccccc24)CCCC3)cc1OC
Ki (Acetylcholinesterase [1]): 210 nM | Ki (Cholinesterase [2]): 31 nM | Ki (Acetylcholinesterase [3]): 640 nM | Ki (Cholinesterase [4]): 6.4 nM

Oc1ccc(/C=N/c2c3c(nc4ccccc24)CCCC3)cc1
Ki (Acetylcholinesterase [1]): 1800 nM | IC50 (Acetylcholinesterase [5]): 1470 nM | IC50 (Cholinesterase [6]): 194 nM | Ki (Acetylcholinesterase [3]): 3000 nM | Ki (Cholinesterase [4]): 17 nM | inhibition [7]: Active

Oc1ccc(CCOCCCCCNc2c3c(nc4ccccc24)CCCC3)cc1O
Ki (Acetylcholinesterase [1]): 77 nM | IC50 (Acetylcholinesterase [5]): 542 nM | Ki (Cholinesterase [2]): 43 nM | IC50 (Cholinesterase [6]): 35.6 nM | Ki (Acetylcholinesterase [3]): 210 nM | Ki (Cholinesterase [4]): 9 nM | inhibition [8]: Active

COc1ccc(CCOCCCCCNc2c3c(nc4ccccc24)CCCC3)cc1OC
Ki (Acetylcholinesterase [1]): 55 nM | Activity [9]: inactive | inhibition [10]: 63.8% | Activity [11]: Non-Toxic | IC50 (Acetylcholinesterase [5]): 168 nM | Ratio IC50 (Cholinesterase [12]): 85 | Ki (Cholinesterase [2]): 7 nM | IC50 (Cholinesterase [6]): 0.515 nM | Ki (Acetylcholinesterase [3]): 170 nM | Ki (Cholinesterase [4]): 1.9 nM | viability at 24 h, 25 µM [13]: 60 to 70% | Stability [14]: Stable | Activity (Primary neuron): Active

C(=N\c1c2c(nc3ccccc13)CCCC2)/c1ccc(OCc2ccccc2)cc1
Ki (Acetylcholinesterase [1]): 23000 nM | Ki (Cholinesterase [2]): 2920 nM | Ki (Acetylcholinesterase [3]): 39000 nM | Ki (Cholinesterase [4]): 643 nM

COc1ccc(/C=N/c2c3c(nc4ccccc24)CCCC3)cc1OC
Ki (Acetylcholinesterase [1]): 1900 nM | GI50 (HBL-100): 43000 nM | GI50 (A549): 34000 nM | Ki (Cholinesterase [2]): 271 nM | Ki (Acetylcholinesterase [3]): 2500 nM | GI50 at 48 h [15]: 16000 nM | Ki (Cholinesterase [4]): 35 nM | GI50 (SW1573): 39000 nM | GI50 (T47D [16]): 35000 nM | inhibition [8]: Active | GI50 (HeLa): 43000 nM | GI50 (WiDr [17]): 31000 nM

C(=N\c1c2c(nc3ccccc13)CCCC2)/c1ccc(OCc2ccccc2)c(OCc2ccccc2)c1
Ki (Acetylcholinesterase [1]): 20000 nM | Ki (Cholinesterase [2]): 637 nM | Ki (Acetylcholinesterase [3]): 24000 nM | Ki (Cholinesterase [4]): 173 nM

c1ccc2c(N3CCCCC3)c3c(nc2c1)CCCC3
Ki (Acetylcholinesterase [1]): 2500 nM | GI50 (HBL-100): 19000 nM | GI50 (A549): 11000 nM | RatioGI50 (T47D [18]): 10 | Ki (Cholinesterase [2]): 1900 nM | Ki (Acetylcholinesterase [3]): 1800 nM | RatioGI50 (WiDr [19]): 10 | GI50 at 48 h [15]: 25000 nM | Ki (Cholinesterase [4]): 275 nM | GI50 (SW1573): 13000 nM | GI50 (T47D [16]): 5200 nM | selectivity ratio at 48 h [20]: 5 | GI50 (HeLa): 13000 nM | selectivity ratio at 48 h [21]: 5 | GI50 (WiDr [17]): 4500 nM

Oc1ccc(/C=N/c2c3c(nc4ccccc24)CCCC3)cc1O
Ki (Acetylcholinesterase [1]): 820 nM | IC50 (Acetylcholinesterase [5]): 609 nM | Ki (Cholinesterase [2]): 11 nM | IC50 (Cholinesterase [6]): 41.5 nM | Ki (Acetylcholinesterase [3]): 2100 nM | Ki (Cholinesterase [4]): 1.9 nM

C(=N\c1c2c(nc3ccccc13)CCCC2)/c1cc(OCc2ccccc2)c(OCc2ccccc2)c(OCc2ccccc2)c1
Ki (Acetylcholinesterase [1]): 3000 nM | Ki (Cholinesterase [2]): 704 nM | Ki (Acetylcholinesterase [3]): 2300 nM | Ki (Cholinesterase [4]): 192 nM

c1ccc(COc2ccc(CCNc3c4c(nc5ccccc35)CCCC4)cc2)cc1
Ki (Acetylcholinesterase [1]): 610 nM | Ki (Cholinesterase [2]): 22 nM | Ki (Acetylcholinesterase [3]): 1600 nM | Ki (Cholinesterase [4]): 1.1 nM

c1ccc2c(N3CCCC3)c3c(nc2c1)CCCC3
GI50 (HBL-100): 27000 nM | GI50 (A549): 24000 nM | Ki (Cholinesterase [2]): 1200 nM | Ki (Acetylcholinesterase [3]): 3200 nM | GI50 at 48 h [15]: 50000 nM | Ki (Cholinesterase [4]): 304 nM | GI50 (SW1573): 26000 nM | GI50 (T47D [16]): 18000 nM | GI50 (HeLa): 18000 nM | GI50 (WiDr [17]): 21000 nM

c1ccc(COc2ccc(CCNc3c4c(nc5ccccc35)CCCC4)cc2OCc2ccccc2)cc1
Ki (Acetylcholinesterase [1]): 610 nM | Ki (Cholinesterase [2]): 22 nM | Ki (Acetylcholinesterase [3]): 1600 nM | Ki (Cholinesterase [4]): 1.1 nM

Oc1ccc(CNc2c3c(nc4ccccc24)CCCC3)cc1
Ki (Acetylcholinesterase [1]): 81 nM | Ki (Cholinesterase [2]): 12 nM | Ki (Acetylcholinesterase [3]): 370 nM | Ki (Cholinesterase [4]): 3.2 nM | inhibition [8]: Active

Oc1ccc(CNCCCCCCNc2c3c(nc4ccccc24)CCCC3)cc1O
Ki (Acetylcholinesterase [1]): 58 nM | IC50 (Acetylcholinesterase [5]): 29 nM | Ki (Cholinesterase [2]): 7.9 nM | IC50 (Cholinesterase [6]): 22.9 nM | Ki (Acetylcholinesterase [3]): 120 nM | Ki (Cholinesterase [4]): 1.7 nM

BrCCCCCOCCc1ccc(OCc2ccccc2)cc1
GI50 (HBL-100): > 100000 nM | GI50 (A549): 93000 nM | GI50 (SW1573): > 100000 nM | GI50 (T47D [16]): 92000 nM | GI50 (HeLa): > 100000 nM | GI50 (WiDr [17]): > 100000 nM

c1ccc(COc2ccc(CCOCCCCCNc3c4c(nc5ccccc35)CCCC4)cc2)cc1
Ki (Acetylcholinesterase [1]): 110 nM | inhibition [10]: 70% | IC50 (Acetylcholinesterase [5]): 454 nM | Ki (Cholinesterase [2]): 1.9 nM | IC50 (Cholinesterase [6]): 6.95 nM | Ki (Acetylcholinesterase [3]): 110 nM | Ki (Cholinesterase [4]): 1.5 nM

Oc1ccc(CCOCCCCCNc2c3c(nc4ccccc24)CCCC3)cc1
Ki (Acetylcholinesterase [1]): 100 nM | inhibition [10]: 54.4% | IC50 (Acetylcholinesterase [5]): 142 nM | IC50 (Cholinesterase [6]): 6.06 nM | Ki (Acetylcholinesterase [3]): 140 nM | Ki (Cholinesterase [4]): 4.5 nM | inhibition [7]: Active

O=c1[nH]cc(F)c(=O)[nH]1 [FLUOROURACIL]
GI50 (HBL-100): 5500 nM | GI50 (SW1573): 4300 nM | GI50 (T47D [16]): 47000 nM | GI50 (HeLa): 15000 nM | GI50 (WiDr [17]): 49000 nM

Oc1ccc(CNc2c3c(nc4ccccc24)CCCC3)cc1O
Ki (Acetylcholinesterase [1]): 190 nM | IC50 (Acetylcholinesterase [5]): 100 nM | Ki (Cholinesterase [2]): 25 nM | IC50 (Cholinesterase [6]): 74.8 nM | Ki (Acetylcholinesterase [3]): 190 nM | Ki (Cholinesterase [4]): 3.2 nM

Oc1cc(/C=N/c2c3c(nc4ccccc24)CCCC3)cc(O)c1O
Ki (Acetylcholinesterase [1]): 170 nM | IC50 (Acetylcholinesterase [5]): 1040 nM | Ki (Cholinesterase [2]): 51 nM | IC50 (Cholinesterase [6]): 120 nM | Ki (Acetylcholinesterase [3]): 400 nM | Ki (Cholinesterase [4]): 5.8 nM

Oc1ccc(CCNc2c3c(nc4ccccc24)CCCC3)cc1
Ki (Acetylcholinesterase [1]): 32 nM | Ki (Cholinesterase [2]): 184 nM | Ki (Acetylcholinesterase [3]): 110 nM | inhibition [7]: Active

Oc1ccc(CCNc2c3c(nc4ccccc24)CCCC3)cc1O
Ki (Acetylcholinesterase [1]): 590 nM | Ki (Cholinesterase [2]): 128 nM | Ki (Acetylcholinesterase [3]): 870 nM | Ki (Cholinesterase [4]): 28 nM

COc1ccc(CCOCCCCCNc2c3c(nc4ccccc24)CCCC3)cc1
Ki (Acetylcholinesterase [1]): 75 nM | inhibition [10]: 63.5% | IC50 (Acetylcholinesterase [5]): 216 nM | Ki (Cholinesterase [2]): 29 nM | IC50 (Cholinesterase [6]): 2.92 nM | Ki (Acetylcholinesterase [3]): 75 nM | Ki (Cholinesterase [4]): 2.9 nM

c1ccc(COc2ccc(CCOCCCCCNc3c4c(nc5ccccc35)CCCC4)cc2OCc2ccccc2)cc1
Ki (Acetylcholinesterase [1]): 130 nM | viability at 24 h, 1 µM [22]: 50% | Activity [9]: inactive | inhibition [10]: 75.3% | IC50 (Acetylcholinesterase [5]): 506 nM | Ratio IC50 (Cholinesterase [12]): 85 | Ki (Cholinesterase [2]): 4.6 nM | IC50 (Cholinesterase [6]): 0.497 nM | Ki (Acetylcholinesterase [3]): 340 nM | Ki (Cholinesterase [4]): 2.7 nM | Activity (HepG2): Toxic

COc1ccc(CNCCCCCNc2c3c(nc4ccccc24)CCCC3)cc1OC
Ki (Acetylcholinesterase [1]): 120 nM | Ki (Cholinesterase [2]): 30 nM | Ki (Acetylcholinesterase [3]): 160 nM | Ki (Cholinesterase [4]): 9.9 nM
